Assay results published in ChEMBL document CHEMBL3120101, “Synthesis, biological evaluation, hydration site thermodynamics, and chemical reactivity analysis of α-keto substituted peptidomimetics for the inhibition of Plasmodium falciparum” (Bioorg Med Chem Lett, 2014).

Experiments:
[1] = target: T1, Cysteine protease falcipain-3 (Plasmodium falciparum, UniProt Q9NAW4); experiment: Inhibition of Plasmodium falciparum cysteine protease falcipain-3
T1 sequence (Q9NAW4 whole entry): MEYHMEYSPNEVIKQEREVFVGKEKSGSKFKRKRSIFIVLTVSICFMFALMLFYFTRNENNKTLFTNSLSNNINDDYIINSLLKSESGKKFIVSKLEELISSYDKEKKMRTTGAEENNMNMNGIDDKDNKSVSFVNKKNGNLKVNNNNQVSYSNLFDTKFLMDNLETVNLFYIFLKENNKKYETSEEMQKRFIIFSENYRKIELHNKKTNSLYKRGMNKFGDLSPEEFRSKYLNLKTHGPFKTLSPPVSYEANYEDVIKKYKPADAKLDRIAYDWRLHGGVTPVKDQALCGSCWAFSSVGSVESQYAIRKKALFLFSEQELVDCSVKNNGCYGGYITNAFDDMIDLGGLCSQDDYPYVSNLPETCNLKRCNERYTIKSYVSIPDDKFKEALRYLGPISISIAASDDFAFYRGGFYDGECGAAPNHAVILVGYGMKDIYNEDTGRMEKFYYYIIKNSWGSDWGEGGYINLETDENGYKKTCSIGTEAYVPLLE

[2] = target: T2, Falcipain 2 (Plasmodium falciparum, UniProt Q9N6S8); experiment: Inhibition of Plasmodium falciparum cysteine protease falcipain-2
T2 sequence (Q9N6S8 whole entry): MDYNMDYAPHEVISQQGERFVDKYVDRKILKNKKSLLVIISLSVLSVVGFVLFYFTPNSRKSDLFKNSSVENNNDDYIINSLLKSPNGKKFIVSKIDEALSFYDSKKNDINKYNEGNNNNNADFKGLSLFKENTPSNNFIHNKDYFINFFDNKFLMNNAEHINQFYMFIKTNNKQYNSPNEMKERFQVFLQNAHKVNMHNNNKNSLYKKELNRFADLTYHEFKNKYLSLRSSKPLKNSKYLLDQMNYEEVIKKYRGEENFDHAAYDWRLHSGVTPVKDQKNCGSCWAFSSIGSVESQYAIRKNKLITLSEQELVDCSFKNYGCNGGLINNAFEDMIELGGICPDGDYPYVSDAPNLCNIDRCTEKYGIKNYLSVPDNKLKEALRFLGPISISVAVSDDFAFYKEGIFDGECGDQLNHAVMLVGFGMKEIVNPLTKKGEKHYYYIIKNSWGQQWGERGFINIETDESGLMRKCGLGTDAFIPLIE

[3] = test system: Plasmodium falciparum; experiment: Antimicrobial activity against chloroquine-resistant Plasmodium falciparum W2 assessed as growth inhibition; type: functional, organism-based

Structure (SMILES)	IC50 [1] [µM]	IC50 [2] [µM]	IC50 [3] [µM]
O=C(CO)[C@H](CCc1ccccc1)NC(=O)[C@@H]1CCCN1C(=O)OCc1ccccc1	> 50	> 50	> 50
O=C(CSCCCc1ccccc1)[C@H](CCc1ccccc1)NC(=O)[C@@H]1CCCN1C(=O)OCc1ccccc1	> 50	48.1	13.8
CC(=O)SCC(=O)[C@H](CCc1ccccc1)NC(=O)[C@@H]1CCCN1C(=O)OCc1ccccc1	36.4	> 50	18.1
CC(=O)OCC(=O)[C@H](CCc1ccccc1)NC(=O)[C@@H]1COC(C)(C)N1C(=O)OCc1ccccc1	> 50	> 50	> 50
CC1(C)OC[C@@H](C(=O)N[C@@H](CCc2ccccc2)C(=O)CO)N1C(=O)OCc1ccccc1	> 50	> 50	> 50
O=C(N[C@H]1CCCC[C@H]1C(=O)N[C@@H](CCc1ccccc1)C(=O)CO)OCc1ccccc1	0.54	5.52	> 50
O=C(N[C@@H]1CCCC[C@@H]1C(=O)N[C@@H](CCc1ccccc1)C(=O)CO)OCc1ccccc1	0.91	4.42	47.6
O=C(N[C@H]1CC=CC[C@H]1C(=O)N[C@@H](CCc1ccccc1)C(=O)CO)OCc1ccccc1	20.2	> 50	> 50
O=C(N[C@H]1CCC[C@H]1C(=O)N[C@@H](CCc1ccccc1)C(=O)CO)OCc1ccccc1	23.9	> 50	> 50
CC(=O)OCC(=O)[C@H](CCc1ccccc1)NC(=O)[C@@H]1Cc2ccccc2CN1C(=O)OCc1ccccc1	> 50	> 50	> 50
O=C(CO)[C@H](CCc1ccccc1)NC(=O)[C@@H]1Cc2ccccc2CN1C(=O)OCc1ccccc1	> 50	> 50	> 50
O=C1CCC(NC(=O)OCc2ccccc2)(C(=O)N[C@@H](CCc2ccccc2)C(=O)CO)CC1	47.2	> 50	23.3
CC(=O)OCC(=O)[C@H](CCc1ccccc1)NC(=O)C1(NC(=O)OCc2ccccc2)CCSCC1	> 50	33.9	> 50
O=C(NC1(C(=O)N[C@@H](CCc2ccccc2)C(=O)CO)CCSCC1)OCc1ccccc1	8.22	3.25	28.2
CC(=O)OCC(=O)[C@H](CCc1ccccc1)NC(=O)[C@H](CCc1ccccc1)NC(=O)OCc1ccccc1	> 50	29.7	> 50
O=C(N[C@@H](CCc1ccccc1)C(=O)N[C@@H](CCc1ccccc1)C(=O)CO)OCc1ccccc1	11.9	30.1	37.2
CC(=O)OCC(=O)[C@H](CCc1ccccc1)NC(=O)C1C2C=CC(C2)C1NC(=O)OCc1ccccc1 (stereo partly specified)	> 50	> 50	> 50
O=C(NC1C2C=CC(C2)C1C(=O)N[C@@H](CCc1ccccc1)C(=O)CO)OCc1ccccc1 (stereo partly specified)	25.4	33.6	47.2
O=C(CO)[C@H](CCc1ccccc1)NC(=O)[C@@H]1C[C@@H](O)CN1C(=O)OCc1ccccc1	0.06	0.08	7.7
O=C(CSCCCc1ccccc1)[C@H](CCc1ccccc1)NC(=O)[C@@H]1C[C@@H](O)CN1C(=O)OCc1ccccc1	0.52	1.1	19.6
CC(=O)SCC(=O)[C@H](CCc1ccccc1)NC(=O)[C@@H]1C[C@@H](O)CN1C(=O)OCc1ccccc1	3.56	> 50	18.6
O=C(CN1CCOCC1)[C@H](CCc1ccccc1)NC(=O)[C@@H]1C[C@@H](O)CN1C(=O)OCc1ccccc1	> 50	> 50	10.2
